Data as given in patent US7214535B2, “Glyphosate-tolerant 5-enolpyruvylshikimate-3-phosphate synthase and the gene encoding the same” (Peking University, priority 2002, dated 2007).

System: strain 4G-1
Assay: Growth of isolated strain 4G-1 on media comprising glyphosate or Ampicillin
Assay type: cell-based, Pseudomonas putida
Experimental: The sample were taken from neighborhood of a glyphosate producing factory in Hebei Province, China, and were diluted and spread on mediums comprising glyphosate. A total of 48 strains are isolated with high tolerance and degradation ability to glyphosate. One strain of them, 4G-1, is able to grow on a medium with 400 mM glyphosate, and is resistant to 100 mg/L Ampicillin. Said strain is selected for further studies.
The resulting products are purified by a purification method for PCR product, and are ligated to a T vector (Takara, Dalian) according to the instruction of manufacturer Takara to obtain plasmid pKU2000. […] Using BLAST software and BLASTP 2.2.2 [Dec. […] Thus, strain 4G-1 is thought to be P. putida, and is designated as P. putida 4G-1 (abbreviated as P. P4G-1). Said strain is deposited on Apr. 30, 2002 at the Chinese General Microbiological Culture Centre (CGMCC) (ZhongGuan Cun, Beijing, China) with the accession number CGMCC 0739.

SMILES	resistance of strain 4G-1 to Ampicillin (100 mg/L Ampicillin)	growth of strain 4G-1 on medium with glyphosate (400 mM glyphosate)
CC1(C)S[C@@H]2[C@H](NC(=O)[C@H](N)c3ccccc3)C(=O)N2[C@H]1C(=O)O [Ampicillin]	resistant	–
O=C(O)CNCP(=O)(O)O [glyphosate, N-phosphylmethyl glycine]	–	able to grow
